In one assay the target is T1, pVER-IPTG-004(S70R) (Escherichia coli, UniProt P03023, A87P/E357G/S70R/V301M).
T1 construct: gene lacI; LacI expressed from pVER plasmid
Put plainly: In vivo IPTG dose-response of LacI-regulated eYFP expression from the pVER plasmid in E. coli grown in rich M9 medium at 37 °C, measured by flow cytometry and fitted to the Hill equation by Bayesian MCMC (posterior mean and SD). The format is cell-based, E. coli MG1655Δlac. Conditions: read-out: log_ec50 (base-10 logarithm of EC50 in μmol/L) (converted). The method, then:
(§1) All reported measurements were completed using E. coli strain MG1655Δlac, in which the lactose operon of E. coli strain MG1655 (ATCC #47076) was replaced with the bleomycin resistance gene from Streptoalloteichus hindustanus (Shble).
Dose-response curves were measured with flow cytometry using E. coli MG1655Δlac transformed with variants of the pVER plasmid, described previously. The plasmid contained different variants of the lacI coding DNA sequence (CDS), as described in the text, and an expression cassette with enhanced yellow fluorescent protein (eYFP) under the control of the lactose operator (lacO). The lacI CDS was verified with Sanger sequencing for each variant.
All cultures were grown in a rich M9 media (3 g/L KH2PO4, 6.78 g/L Na2HPO4, 0.5 g/L NaCl, 1 g/L NH4Cl, 0.1 mmol/L CaCl2, 2 mmol/L MgSO4, 4% glycerol, and 20 g/L casamino acids) supplemented with 50 μg/mL kanamycin.
• Prepare first growth plate, with 450 μL rich M9 media in each well. • Pipette 50 μL of starter culture into each well in rows B-G of the plate (leaving rows A and H blank). • Use a E. coli containing a different lacI variant for each row. • Seal first growth plate with gas permeable membrane. • Incubate plate in plate reader for 12 h to 14 h. • Grow to stationary to provide a reproducible starting point for each measurement. • Prepare second growth plate with 490 μL in each well. • Dilution series of isopropyl-β-D-thiogalactopyranoside (IPTG): 11 columns of a 2-fold serial dilution gradient and one column with zero IPTG. • Ten minutes before the end of the incubation cycle for the first growth plate, move the second growth plate to a heated station set to 47°C. • Ten minutes at 47°C will pre-warm the media in the plate to 37°C. • De-seal the first growth plate (after completion of the stationary-phase incubation cycle). • Pipette 10 μL from each well in the first growth plate to the corresponding well in the second growth plate. • 50-fold dilution; using a 96-channel pipetting head. • Seal second growth plate with gas permeable membrane. • Incubate second growth plate in plate reader for 160 minutes. • Sufficient for approximately 10-fold increase in cell density or 3.3 doublings. • Prepare third growth plate with 450 μL in each well. • Same dilution series as in second growth plate. • Ten minutes before the end of the incubation cycle for the second growth plate, move the third growth plate to a heated station set to 47°C. • De-seal the second growth plate (after completion of the 160 minute incubation cycle). • Pipette 50 μL from each well in the second growth plate to the corresponding well in the third growth plate. • 10-fold dilution; using a 96-channel pipetting head. • Seal third growth plate with gas permeable membrane. • Incubate third growth plate in plate reader for 160 minutes. • Prepare flow cytometry sample plate (round-bottom 96-well plate, Falcon, 351177). • Each well in rows B-G: 195 μL 1x PBS with 170 μg/mL chloramphenicol (Fisher BioReagents, cat. #BP904-100). • Rows A and H: PBS blanks, focusing fluid blanks, and space for calibration bead sample • At the end of the incubation cycle for the third growth plate, pipette 5 μL from each well to the corresponding well in the flow cytometry sample plate.
(§2) Flow cytometry samples were measured with an Attune NxT flow cytometer equipped with a 96-well plate autosampler using a 488 nm excitation laser and a 530 nm ± 15 nm bandpass emission filter. Blank samples were measured with each batch of cell measurements, and an automated gating algorithm was used to discriminate cell events from non-cell events. Fluorescence calibration beads (Spherotech, part no. RCP-30-20A) were also measured with each batch of samples to facilitate calibration of flow cytometry data to molecules of equivalent fluorescein (MEF). […]
On the technique in general: In flow cytometry, cells or beads pass a laser one at a time.

A further assay addresses T2, pVER-IPTG-WT (Escherichia coli, UniProt P03023).
T2 construct: gene lacI; full-length LacI expressed from pVER plasmid; wild type
Described as above. The format is cell-based. As to conditions: read-out: log_ec50 (base-10 logarithm of EC50 in μmol/L) (converted). The method, then: as §1
Dose-response curves were measured with flow cytometry using E. coli MG1655Δlac transformed with variants of the pVER plasmid, described previously. The plasmid contained different variants of the lacI coding DNA sequence (CDS), as described in the text, and an expression cassette with enhanced yellow fluorescent protein (eYFP) under the control of the lactose operator (lacO). The lacI CDS was verified with Sanger sequencing for each variant. […]
as §2

The results in this text go back to publication PMC10057847, “Precision engineering of biological function with large-scale measurements and machine learning” (PLOS ONE, 2023).

T2 sequence (P03023 whole entry): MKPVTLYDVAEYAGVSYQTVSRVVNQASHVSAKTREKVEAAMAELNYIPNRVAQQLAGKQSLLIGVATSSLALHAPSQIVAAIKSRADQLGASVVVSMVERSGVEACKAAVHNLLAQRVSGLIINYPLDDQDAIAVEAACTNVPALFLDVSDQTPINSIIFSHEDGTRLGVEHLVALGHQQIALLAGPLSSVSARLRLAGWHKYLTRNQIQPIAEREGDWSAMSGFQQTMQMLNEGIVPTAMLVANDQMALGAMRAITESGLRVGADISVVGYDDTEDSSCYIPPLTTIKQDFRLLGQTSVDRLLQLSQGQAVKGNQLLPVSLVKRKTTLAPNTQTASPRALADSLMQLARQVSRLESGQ
T1 sequence (P03023 whole entry S70R/A87P/V301M/E357G): as the sequence (P03023 whole entry) above, with S70R, A87P, V301M, E357G counted along it

For the compound `CC(C)S[C@@H]1O[C@H](CO)[C@H](O)[C@H](O)[C@H]1O` [IPTG, isopropyl-β-D-thiogalactopyranoside], the EC50 at pVER-IPTG-004(S70R) is 3890 µmol/L; at pVER-IPTG-WT, 119 µmol/L.
